Assay results taken from the NIST ThermoML archive (doi:10.1007/s10765-012-1371-1).

Test: xn = mol fraction of the nth substance listed
Conditions: 101 kPa, Liquid

CCCCOCC [butyl ethyl ether] + CC(C)CCl
viscosity [mPa·s]
Conditions	283.15 K	288.15 K	293.15 K	298.15 K	303.15 K	308.15 K	313.15 K
x2 = 0	0.4796	0.4509	0.4242	0.399	0.3756	0.356	0.3416
x2 = 0.0493	0.4797	0.4512	0.4246	0.3993	0.3762	0.3569	0.3423
x2 = 0.1004	0.4799	0.4514	0.4248	0.3998	0.3771	0.3578	0.3432
x2 = 0.2001	0.4812	0.4526	0.4259	0.4012	0.3793	0.3603	0.3455
x2 = 0.3012	0.4836	0.4548	0.4279	0.4035	0.3822	0.3634	0.3481
x2 = 0.4021	0.4866	0.4574	0.4305	0.4063	0.3855	0.3667	0.3511
x2 = 0.5025	0.4903	0.4609	0.4337	0.4097	0.3893	0.3704	0.3543
x2 = 0.6007	0.4946	0.4649	0.4374	0.4133	0.3933	0.3745	0.3576
x2 = 0.6993	0.4994	0.4692	0.4412	0.4171	0.3975	0.3786	0.3612
x2 = 0.7994	0.5044	0.4736	0.4453	0.4211	0.4021	0.3832	0.3649
x2 = 0.8993	0.5099	0.4783	0.4496	0.4253	0.4065	0.3875	0.3687
x2 = 0.9491	0.5126	0.4808	0.4518	0.4274	0.4089	0.3898	0.3706

CCCCOCC [butyl ethyl ether] + CCC(C)Cl
viscosity [mPa·s]
Conditions	283.15 K	288.15 K	293.15 K	298.15 K	303.15 K	308.15 K	313.15 K
x2 = 0	0.4796	0.4509	0.4242	0.399	0.3756	0.356	0.3416
x2 = 0.0525	0.4785	0.4498	0.4233	0.3983	0.3749	0.3552	0.3404
x2 = 0.0974	0.4776	0.4489	0.4223	0.3974	0.374	0.3541	0.3392
x2 = 0.2001	0.475	0.4462	0.4203	0.3963	0.3732	0.3533	0.3379
x2 = 0.3027	0.4724	0.4436	0.4183	0.395	0.3724	0.3529	0.3372
x2 = 0.4	0.4697	0.4409	0.4165	0.394	0.3718	0.3523	0.3364
x2 = 0.5248	0.4665	0.4384	0.4148	0.3933	0.3716	0.3523	0.3361
x2 = 0.6016	0.4647	0.4368	0.4139	0.393	0.3716	0.3523	0.336
x2 = 0.7006	0.463	0.4353	0.413	0.393	0.3721	0.353	0.3363
x2 = 0.7993	0.462	0.4346	0.4132	0.3939	0.3735	0.3545	0.3376
x2 = 0.8997	0.4619	0.4349	0.4143	0.3959	0.3759	0.3569	0.3396
x2 = 0.9502	0.4623	0.4356	0.4152	0.3972	0.3775	0.3587	0.3414
